{
  "source": "patent US9409983B2",
  "about": "“Methods and compositions involving PBEF inhibitors for lung inflammation conditions and diseases” (The Board of Trustess of the University of Illinois, priority 2009, dated 2016)",
  "key": {"[1]": {"test_system": "C57BL/6 mice", "assay": "rhPBEF challenge in limited ventilator-induced lung injury model (VILIa, 30 ml/kg)", "type": "in vivo, mouse", "protocol": "(§1) The first VILI model was designed to produce limited lung injury (VILIa, tidal volume 30 ml/kg), thus allowing assessment of potential synergy with rhPBEF challenge. Male C57BL/6J B6 mice were anesthetized with ketamine/acepromazine, intubated and administered rhPBEF (20 μg/mouse) via an intratracheal (IT) route ˜30 min before ventilator placement (room air, tidal volume 30 ml/kg, 65 breaths/minute, 0 cm H2O PEEP) for 4 hr as previously described (Nonas et al., 2007; Moitra et al., 2007). Groups included a spontaneous breathing group (SB), a spontaneous breathing group challenged with rhPBEF (SB-rhPBEF), a high tidal ventilation group (VILIa), and a high tidal ventilation group with rhPBEF challenge (VILIa-rhPBEF) (n=4-6 all groups).\n(§2) BAL fluid recovered as we previously described was used for multiple assays including total BAL protein, and BAL cell differentials (Peng et al., 2004). Tissue albumin content was assessed as previously described (Nonas et al., 2007). Cytokine levels in BAL fluid (IL-1β, IL-6, KC, MIP2, TNF-α) were analyzed by multiplex assays (Bio-Rad, Hercules, Calif., USA). BAL PBEF levels were assayed by a C-terminal ELISA (Phoenix Pharmaceuticals Inc. Belmont, Calif.) and analyzed using the SoftmaxPRO software (Molecular Devices Corp). (See Supplemental Methods).\n(§3) We utilized two experimental models of ventilator-induce lung injury in these experiments. Our first approach (VILIa) utilized a VILI protocol with a tidal volume of 30 ml/kg designed to produce limited lung injury in order to allow assessment of potential synergism between delivered PBEF and mechanical ventilation-induced lung injury. Male C57BL/6J mice (8-12 wk old, 24.7±2.0 g) were weighed, anesthetized with ketamine/acepromazine, intubated using a 20 gauge catheter (Medex, Inc, Carlsbad, Calif.) and administered recombinant PBEF (20 μg/mouse in 1.5 μl water per gram body weight or vehicle equal volumes of water) via an intratracheal (IT) route ˜30 min before being placed on mechanical ventilation as we have previously described (Peng et al., 2004). Mice were then connected to Harvard Apparatus ventilator (Boston, Mass.) at room air, tidal volume of 30 ml/kg, 65 breaths/minute, and positive expiratory pressure (PEEP) 0 cm H2O for 4 hr. Groups of mice were randomly allocated to either the spontaneous breathing group (SB) (n=4), the spontaneous breathing challenged with IT rhPBEF group (SB-rhPBEF) (n=6), the high tidal ventilation group (VILIa) (n=6), or high tidal ventilation with rhPBEF group (VILIa-rhPBEF) (n=6). Normal saline (0.2 cc) was given via intraperitoneal injection at the beginning and 2 hours later to all ventilated mice and peak inspiratory pressure was monitored continuously. Temperature was maintained with heat blanket to all mice during experiment.\n(§4) Mice underwent bronchioalveolar lavage (BAL) of both lungs with Hank's balanced salt solution (1 mL/mouse), and the recovered BAL fluid was used for assays as we have previously described (Peng et al., 2004). Total protein was measured using the Bio-Rad DC Protein Assay (Bio-Rad Laboratories, Hercules, Calif.) (Peng et al., 2004). Protein results were expressed as mg/ml to allow for comparison to other studies. Lavage samples were centrifuged at 500×g on a refrigerated micro centrifuge for 20 min. The supernatant was decanted and aliquot for protein assays. The BAL cells were resuspended in Hank's balanced salt solution and counted using a hemacytometer using standard techniques.\n(§5) Re-suspended BAL cells from lung lavage were centrifuged using a Shandon Cytospin-2 at 600 RPM for 15 min, fixed by air-drying, and stained with Diff-Quik dye for differential counts (Peng et al., 2004). Stained cell slides were evaluated and differentially counted for each individual animal (lymphocyte, neutrophil or a macrophage).\n(§6) BAL fluid for cytokine measurements was stored at −80° C. until analysis. […]"}, "[2]": {"test_system": "C57BL/6 mice", "assay": "Intratracheal rhPBEF instillation in spontaneously breathing mice (BAL, tissue albumin, cytokines, histology)", "type": "in vivo, mouse", "protocol": "as §1, §2\nas §3, with “([…]” for “(20 μg/mouse in 1.5 μl water per gram body weight or vehicle equal volumes”\nas §4, §5, §6"}, "[3]": {"settings": "spontaneously breathing mice, rhPBEF"}},
  "note": "“Also recorded” adds a separate entry of the source.",
  "data": [
    {"substance": "rhPBEF: Recombinant human soluble PBEF/visfatin, a 52 kDa protein containing 465 amino acid residues, purchased from PeproTech", "values": [
      {"measurement": "BAL IL-1β", "setting": "[1]", "result": "53 ± 4", "unit": "pg/mL"},
      {"measurement": "BAL IL-6", "setting": "[1]", "result": "957 ± 103", "unit": "pg/mL"},
      {"measurement": "BAL KC", "setting": "[1]", "result": "2310 ± 263", "unit": "pg/mL"},
      {"measurement": "BAL MIP-2", "setting": "[1]", "result": "30480 ± 219", "unit": "pg/mL"},
      {"measurement": "BAL TNF-α", "setting": "[1]", "result": "985 ± 293", "unit": "pg/mL"},
      {"measurement": "BAL cytospin (400×)", "setting": "[1]; 20 μg rhPBEF", "result": "dramatic influx of neutrophils into the alveolar space"},
      {"measurement": "histologic assessment of lung tissue (hematoxylin and eosin)", "setting": "[1]; intratracheal rhPBEF 30 min prior to mechanical ventilation for 4 hr", "result": "greater alveolar wall thickening, and neutrophil infiltration into the lung interstitium and alveolar space; also recorded: dramatically augmented"},
      {"measurement": "BAL IL-1β", "setting": "[2]; SB-rhPBEF", "result": "55 ± 22", "unit": "pg/mL"},
      {"measurement": "BAL TNF-α", "setting": "[2]; SB-rhPBEF", "result": "262 ± 94", "unit": "pg/mL"},
      {"measurement": "histologic assessment of lung tissue (hematoxylin and eosin)", "setting": "[2]; SB-rhPBEF, 20 μg/mouse in 30 μl saline intratracheal", "result": "mild inflammation; also recorded: macrophage & neutrophil infiltration and edematous alveolar areas"},
      {"measurement": "BAL IL-6", "setting": "[2]; [3]", "result": "319 ± 67", "unit": "pg/mL"},
      {"measurement": "BAL KC", "setting": "[2]; [3]", "result": "1388 ± 169", "unit": "pg/mL"},
      {"measurement": "BAL MIP-2", "setting": "[2]; [3]", "result": "29026 ± 762", "unit": "pg/mL"}
    ]}
  ]
}
